Data from patent publication US20070244110A1, “Treatment of prostate cancer, melanoma or hepatic cancer” (ZENYAKU KOGYO KABUSHIKI KAISHA, priority 2006, published 2007).

Experiments:
[1] = test system: PC-3 prostate cancer cells; assay: In vivo anti-tumor experiment, PC-3 human tumor xenograft; design: species or system BALB/c nude mice; conditions: 6 days a week for two weeks, day 14
Description: (§1) Human tumor xenografts were generated with PC-3 prostate cancer cells, and WiDr colon cancer cells, and were grown as subcutaneous tumors in mutant BALB/c nude mice. Each nude mouse was subcutaneously inoculated with a tumor fragment of 2 mm by 2 mm by 2 mm. When tumors reached a volume of 100-300 mm^3, animals were divided randomly into test groups of five mice (day 0). The samples were orally administered at a dosage of 100, 200 or 400 mg/kg once daily, 6 days a week for two weeks. The length (L) and width (W) of the subcutaneous tumor mass were measured by calipers in live mice, and the tumor volume (TV) was calculated as: TV=(L×W^2)/2. The tumor volume at day n was expressed as relative tumor volume (RTV), according to the formula RTV=TVn/TV0, where TVn is the tumor volume at day n, and TV0 is the tumor volume at day 0. T/C% on day 14 was determined by calculating RTV as: T/C%=100×(mean RTV of treated group)/(mean RTV of control group). The specimens in which T/C (%) was 50% or less and having a significant difference at P value 1% on one side in a Mann-Whitney U test were evaluated as effective (+).

[2] = test system: PC-3 prostate cancer cells; assay: In vitro anti-tumor experiment, growth inhibition of PC-3 cells; type: cell-based; conditions: PC-3, 72 hours incubation
Description: (§2) Hepatoma HepG2 cells were cultured in a MEM culture medium (containing 10% fetal bovine serum, 25 mM HEPES and 0.1 mg/ml kanamycin) under conditions of 5% carbon dioxide at 37° C. HepG2 cells were harvested as single free cells by a tripsin/EDTA treatment in the logarithmic growth phase, and a cell suspension solution consisted of 2×10^4 cells per ml was prepared with MEM culture medium (containing 10% fetal bovine serum, 25 mM HEPES and 0.1 mg/ml kanamycin). The test compound was dissolved in DMSO, then diluted with RPMI1640 culture medium (containing 10% fetal bovine serum, 25 mM HEPES, 0.1 mg/ml kanamycin), and adjusted to a concentration of 2.0×10^−9 to 2.0×10^−3 M.
(§3) 0.1 ml of the cell suspension solution was put in each well of a 96-well plate, then cultured for 24 hours to make the cells adhere to the microplates, and 0.1 ml of the test compound was added in each well and incubated for 72 hours under conditions of 5% carbon dioxide at 37° C. The 50% growth inhibition concentration (GI50 value μM) was computed from the growth inhibition rates at various test sample concentrations, and the results are shown in Table 1.
(§4) When using cells other than HepG2 cells, the following culture media were used instead of the MEM culture medium, and the following single cell suspensions were prepared with the following media:
PC-3 prostate cancer cells:
F12K culture medium containing 10% fetal bovine serum, 2×10^4 cell suspension

[3] = test system: Hepatoma HepG2 cells; assay: In vitro anti-tumor experiment, growth inhibition of HepG2 cells; type: cell-based; conditions: HepG2, 72 hours incubation
Description: as §2, §3

[4] = test system: B16F10 melanoma cells; assay: In vitro anti-tumor experiment, growth inhibition of B16F10 cells; type: cell-based; conditions: B16F10, 72 hours incubation
Description: as §2, §3, §4
RPMI1640 culture medium containing 10% fetal bovine serum, 1×10^4 cell suspension

[5] = test system: WiDr colon cancer cells; assay: In vivo anti-tumor experiment, WiDr human tumor xenograft (reference); design: species or system BALB/c nude mice; conditions: 6 days a week for two weeks, day 14
Description: as §1

SMILES | Evaluation effective (+), Prostate Cancer ([1]; 200 mg/kg orally once daily) | T/C (%) Prostate Cancer ([1]; 200 mg/kg orally once daily) [%] | GI50 ([2]; Homo sapiens) [nM] | GI50 ([3]; Homo sapiens) [nM] | GI50 ([4]; Mus musculus, B16-F10) [nM] | melting point | T/C (%) Colon Cancer (reference) ([5]; 200 mg/kg orally once daily) [%] | further results
CCOC(=O)Oc1cccc2c1nc(C(F)F)n2-c1nc(N2CCOCC2)cc(N2C[C@@H](C)O[C@@H](C)C2)n1 [Compound 15, 2-(4-ethoxycarbonyloxy-2-difluoromethylbenzimidazol-1-yl)-4-(cis-2,6-dimethyl-moropholino)-6-morpholinopyrimidine] | + (T/C (%) was 50% or less and having a significant difference at P value 1% on one side in a Mann-Whitney U test were evaluated as effective (+)) | 47.5 |  |  |  |  |  | 
COc1cccc2c1nc(C(F)F)n2-c1nc(N2CCOCC2)nc(N2CCOCC2)n1 [Compound 4, 2-(2-difluoromethyl-4-methoxybenzimidazol-1-yl)-4,6-dimorpholino-1,3,5-triazine] |  |  | 190 | 340 | 250 |  |  | 
FC(F)c1nc2ccccc2n1-c1nc(N2CCOCC2)nc(N2CCOCC2)n1 [Compound 1, 2-(2-difluoromethylbenzimidazol-1-yl)-4,6-dimorpholino-1,3,5-triazine] |  |  | 240 | 1150 | 310 |  |  | Evaluation effective (+), Colon Cancer (reference) ([5]; 400 mg/kg orally once daily): + (T/C (%) was 50% or less and having a significant difference at P value 1% on one side in a Mann-Whitney U test were evaluated as effective (+)); T/C (%) Colon Cancer (reference) ([5]; 400 mg/kg orally once daily): 33.2%; Evaluation effective (+), Prostate Cancer ([1]; 400 mg/kg orally once daily): + (T/C (%) was 50% or less and having a significant difference at P value 1% on one side in a Mann-Whitney U test were evaluated as effective (+)); T/C (%) Prostate Cancer ([1]; 400 mg/kg orally once daily): 24.8%
CC1(C)CN(c2nc(N3CCOCC3)nc(-n3c(C(F)F)nc4c(Cl)cc(N)cc43)n2)CCO1 [Compound 12, 2-(6-amino-4-chloro-2-difluoromethylbenzimidazol-1-yl)-4-(2,2-dimethylmorpholino)-6-morpholino-1,3,5-triazine] |  |  | 100 | 260 | 270 | 238 °C (dec.) |  | 
C[C@@H]1CO[C@@H](C)CN1c1nc(N2CCOCC2)nc(-n2c(C(F)F)nc3ccccc32)n1 (relative stereo) [Compound 3, 2-(2-difluoromethylbenzimidazol-1-yl)-4-(trans-2,5-dimethylmorpholino)-6-morpholino-1,3,5-triazine] |  |  | 490 | 1120 | 1140 | 166 to 169 °C |  | 
COc1cccc2c1nc(C(F)F)n2-c1nc(N2CCOCC2)cc(N2C[C@@H](C)O[C@@H](C)C2)n1 [Compound 6, 2-(2-difluoromethyl-4-methoxybenzimidazol-1-yl)-4-(cis-2,6-dimethylmorpholino)-6-moropholinopyrimidine] | + (T/C (%) was 50% or less and having a significant difference at P value 1% on one side in a Mann-Whitney U test were evaluated as effective (+)) | 16.2 |  |  |  |  | 29.5 | Evaluation effective (+), Colon Cancer (reference) ([5]; 100 mg/kg orally once daily): + (T/C (%) was 50% or less and having a significant difference at P value 1% on one side in a Mann-Whitney U test were evaluated as effective (+)); T/C (%) Colon Cancer (reference) ([5]; 100 mg/kg orally once daily): 24.8%; Evaluation effective (+), Colon Cancer (reference) ([5]; 200 mg/kg orally once daily): + (T/C (%) was 50% or less and having a significant difference at P value 1% on one side in a Mann-Whitney U test were evaluated as effective (+)); GI50 [2]: 540 nM; Evaluation effective (+), Prostate Cancer ([1]; 100 mg/kg orally once daily): + (T/C (%) was 50% or less and having a significant difference at P value 1% on one side in a Mann-Whitney U test were evaluated as effective (+)); T/C (%) Prostate Cancer ([1]; 100 mg/kg orally once daily): 32.3%; GI50 [3]: 890 nM; GI50 [4]: 1210 nM
COC(=O)Oc1cccc2c1nc(C(F)F)n2-c1nc(N2CCOCC2)cc(N2CCOC(C)(C)C2)n1 [Compound 14, 2-(2-difluoromethyl-4-methoxycarbonyloxybenzimidazol-1-yl)-4-(2,2-dimethyl-moropholino)-6-morpholinopyrimidine] | + (T/C (%) was 50% or less and having a significant difference at P value 1% on one side in a Mann-Whitney U test were evaluated as effective (+)) | 47.3 |  |  |  |  |  | 
CC(=O)Oc1cccc2c1nc(C(F)F)n2-c1nc(N2CCOCC2)cc(N2C[C@@H](C)O[C@@H](C)C2)n1 [Compound 13, 2-(2-difluoromethyl-4-acetoxybenzimidazol-1-yl)-4-(cis-2,6-dimethylmoropholino)-6-morpholinopyrimidine] |  | 65.4 |  |  |  |  |  | 
C[C@@H]1CN(c2nc(N3CCOCC3)nc(-n3c(C(F)F)nc4c(O)cccc43)n2)C[C@H](C)O1 [Compound 11, 2-(2-difluoromethyl-4-hydroxybenzimidazol-1-yl)-4-(cis-2,6-dimethylmorpholino)-6-morpholino-1,3,5-triazine] |  | 66.5 |  |  |  | 214 to 215 °C | 85.4 | T/C (%) Colon Cancer (reference) ([5]; 400 mg/kg orally once daily): 83.5%; Evaluation effective (+), Prostate Cancer ([1]; 400 mg/kg orally once daily): + (T/C (%) was 50% or less and having a significant difference at P value 1% on one side in a Mann-Whitney U test were evaluated as effective (+)); T/C (%) Prostate Cancer ([1]; 400 mg/kg orally once daily): 44.3%
CC1(C)COCCN1c1cc(N2CCOCC2)nc(-n2c(C(F)F)nc3c(O)cccc32)n1 [Compound 10, 2-(2-difluoromethyl-4-hydroxybenzimidazol-1-yl)-4-(3,3-dimethylmoropholino)-6-morpholinopyrimidine] | + (T/C (%) was 50% or less and having a significant difference at P value 1% on one side in a Mann-Whitney U test were evaluated as effective (+)) | 38.1 |  |  |  |  | 46.2 | Evaluation effective (+), Colon Cancer (reference) ([5]; 200 mg/kg orally once daily): + (T/C (%) was 50% or less and having a significant difference at P value 1% on one side in a Mann-Whitney U test were evaluated as effective (+)); T/C (%) Colon Cancer (reference) ([5]; 400 mg/kg orally once daily): 63.1%; GI50 [2]: 20 nM; Evaluation effective (+), Prostate Cancer ([1]; 400 mg/kg orally once daily): + (T/C (%) was 50% or less and having a significant difference at P value 1% on one side in a Mann-Whitney U test were evaluated as effective (+)); T/C (%) Prostate Cancer ([1]; 400 mg/kg orally once daily): 20.8%; GI50 [3]: 90 nM; GI50 [4]: 42 nM
COc1cccc2c1nc(C(F)F)n2-c1nc(N2CCOCC2)cc(N2CCOC(C)(C)C2)n1 [Compound 5, 2-(2-difluoromethyl-4-methoxybenzimidazol-1-yl)-4-(2,2-dimethylmorpholino)-6-morpholinopyrimidine] | + (T/C (%) was 50% or less and having a significant difference at P value 1% on one side in a Mann-Whitney U test were evaluated as effective (+)) | 39.1 |  |  |  | 160 to 162 °C |  | Evaluation effective (+), Colon Cancer (reference) ([5]; 100 mg/kg orally once daily): + (T/C (%) was 50% or less and having a significant difference at P value 1% on one side in a Mann-Whitney U test were evaluated as effective (+))
Oc1cccc2c1nc(C(F)F)n2-c1nc(N2CCOCC2)nc(N2CCOCC2)n1 [Compound 8, 2-(2-difluoromethyl-4-hydroxybenzimidazol-1-yl)-4,6-dimorpholino-1,3,5-triazine] |  |  | 10 | 120 | 18 |  |  | 
OCC1CCCN1c1nc(N2CCOCC2)nc(-n2c(C(F)F)nc3c(O)cccc32)n1 (stereo not shown) [Compound 9, 2-(2-difluoromethyl-4-hydroxybenzimidazol-1-yl)-4-(2-hydroxymethylpyrrolidin-1-yl)-6-morpholino-1,3,5-triazine] | + (T/C (%) was 50% or less and having a significant difference at P value 1% on one side in a Mann-Whitney U test were evaluated as effective (+)) | 31.8 | 20 | 150 | 63 |  | 49.6 | Evaluation effective (+), Colon Cancer (reference) ([5]; 200 mg/kg orally once daily): + (T/C (%) was 50% or less and having a significant difference at P value 1% on one side in a Mann-Whitney U test were evaluated as effective (+))
